Paper PMC8026785, “The pharmacokinetics of [^18F]UCB-H revisited in the healthy non-human primate brain” (EJNMMI Research, 2021)
Values joined by “and” are separate entries in the source; they are usually repeats but may differ in a detail not shown here. Identical values can stand only once.

Biological target: T1, SV2A (Macaca fascicularis, UniProt Q4R4X3)
T1 construct: The current study evaluates [^18F]UCB-H pharmacokinetics in healthy NHPs; from tissue; host or cells: brain of living healthy cynomolgus monkeys (in vivo PET)
T1 sequence (Q4R4X3 whole entry): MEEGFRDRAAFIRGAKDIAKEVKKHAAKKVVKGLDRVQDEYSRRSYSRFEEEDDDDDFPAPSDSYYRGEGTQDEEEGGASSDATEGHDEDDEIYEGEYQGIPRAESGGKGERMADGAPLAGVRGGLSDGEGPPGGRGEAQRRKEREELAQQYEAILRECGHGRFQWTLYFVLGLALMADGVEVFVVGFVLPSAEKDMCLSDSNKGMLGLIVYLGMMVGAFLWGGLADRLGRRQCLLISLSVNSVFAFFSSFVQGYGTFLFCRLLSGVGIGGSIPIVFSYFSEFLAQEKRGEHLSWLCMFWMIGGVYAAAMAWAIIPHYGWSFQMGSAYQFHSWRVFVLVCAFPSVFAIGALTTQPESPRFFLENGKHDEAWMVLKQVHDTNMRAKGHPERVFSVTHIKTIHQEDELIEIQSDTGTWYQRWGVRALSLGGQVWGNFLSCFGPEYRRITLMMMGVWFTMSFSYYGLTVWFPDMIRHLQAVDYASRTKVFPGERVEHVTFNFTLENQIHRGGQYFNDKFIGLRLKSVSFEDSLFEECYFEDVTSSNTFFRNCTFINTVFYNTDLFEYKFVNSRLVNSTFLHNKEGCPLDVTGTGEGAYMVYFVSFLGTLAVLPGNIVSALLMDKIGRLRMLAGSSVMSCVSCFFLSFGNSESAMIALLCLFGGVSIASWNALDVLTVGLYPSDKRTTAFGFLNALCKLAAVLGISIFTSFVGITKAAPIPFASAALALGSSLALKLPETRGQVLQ
Assay: Brain PET kinetic modelling (1TCM, 2TCM, 2TCM-c, Logan), test-retest
Type: in vivo, cynomolgus monkeys (Macaca fascicularis)
Method: All four non-human primates (NHP) underwent a 2-h (2 h) test and retest PET scan; two NHP underwent an additional 4-h (4 h) retest PET scan. Three NHP underwent one 4-h (4 h) displacement PET scan. Arterial blood sampling was performed during test and retest scans with PET imaging spaced by at least 3 weeks between each scan. To this end, the femoral artery opposite to the saphenous vein used for radioligand injection was cannulated. For the 2-h (2 h) scans, we collected in total 28 blood samples of 1 mL: 16 samples during the first 5 min followed by […] every 5 min and […] every 10 min. For the 4 h scans, we collected an additional 6 samples every 20 min during the last two hours (34 samples in total). Larger samples (2 – 3 mL) were collected at 5, 15, 30, 60, 90, 120 min (2 h) and at 180, 240 min (4 h) for metabolite analysis. Displacement of [^18F]UCB-H was done by intravenous (IV) administration 90 min after [^18F]UCB-H injection of a bolus of 30 mg/kg LEV, or of 80 µg/kg (≈250 nmol/kg) or 5 mg/kg (≈15 µmol/kg) of cold [^19F]-UCB-H. Full experimental design of all NHP is outlined in Additional file 1: Table 1.
PET imaging was performed on the microPET FOCUS220 (Siemens) under standard anesthesia and monitoring procedures. Data acquisition started with the IV bolus injection of [^18F]UCB-H (32.9 ± 1.0 MBq/kg, 0.35 ± 0.07 µg/kg). Dynamic PET images were reconstructed using standard OSEM-2D algorithms while correcting for radioactive decay, scatter, attenuation and detectors inhomogeneity, which were measured prior to PET scanning using respectively ^57Co and ^68Ge external sources.
PET image analysis was performed using PMOD software version 3.8 (PMOD Technologies Ltd., Zurich, Suisse). After individual co-registration of PET-MR images, a cynomolgus atlas published by Ballanger and coworkers was normalized to PET images to extract time activity curves in different brain regions. Volumes of interest (VOI) were cerebral white matter (16.7 cm^3), striatum (0.24 cm^3), thalamus (0.89 cm^3), cerebellum (3.83 cm^3), frontal—(2.50 cm^3), parietal—(5.35 cm^3), and temporal (8.22 cm^3) cortex, and whole brain (72.2 cm^3) as a composite region of all regions in the atlas. [^18F]UCB-H pharmacokinetics were evaluated by analyzing the time activity curves of the test- and retest scans using 1- and 2-tissue compartment models (unconstrained and constrained with global K1/k2 coupled fit across all regions, further referred to as 2TCM and 2TCM-c), and Logan graphical analysis with a fixed t* at 60 min [33] using the arterial plasma input function corrected for radio-metabolites to derive the volume of distribution in each region. Percentage standard error (%SE) was estimated from the theoretical parameter covariance matrix. Only reliable estimates (%SE less than 25%) were included in the current analyses. For the three drug studies, percent displacement of the total activity in the whole brain was estimated relative to an average baseline constructed from the two 4 h baseline studies. Briefly, Standardized Uptake Value (SUV) time activity curves (TACs) were calculated for the two baseline and the three displacement studies. Then, each curve was normalized to the SUV at t = 90 min, corresponding to the timeframe immediately before the administration of the drugs in the displacement studies. Baseline curves were averaged and the percent displacement of total activity was calculated as (baseline-displacement)/baseline at a given time post drug administration (see “Results”).
Statistical analysis was performed using R software (version 3.3.1.). Plasma, intact parent fraction and time activity curves were statistically compared between subjects using a one-factor variance analysis. Absolute Test–Retest variability (aTRV) of PET quantification parameters was calculated as ABS(test—retest) / AVERAGE(test, retest). […]

[1] = Cerebellum, Retest, individual NHP
[2] = Cerebellum, Test, individual NHP
[3] = Frontal Cortex, Retest, individual NHP
[4] = Frontal Cortex, Test, individual NHP

Question: For `O=C1C[C@H](c2cc(F)c(F)c(F)c2)CN1Cc1ccncc1[18F]` [[^18F]UCB-H], which “aTRV of VT” value (1TCM) is on record?
Answer: above 10%

Question: What about the “ICC of VT, overall” value (2TCM-c) of the same molecule?
Answer: ~ 0.4

Question: And the “aTRV of VT, overall” value (2TCM-c)?
Answer: ~ 17%

Question: What about the “k3/k4 (surrogate of BPND), average” value (2TCM-c, average) of the same molecule?
Answer: 1.07 ± 0.02 and 1.1

Question: And the “ICC of Logan (t* = 60) VT” value (Cerebellum)?
Answer: 0.32

Question: And the “aTRV of Logan (t* = 60) VT” value (Cerebellum)?
Answer: 14%

Question: What about the “K1 (2TCM)” value [1] of the same molecule?
Answer: 0.62 ml/cm^3 /min and 0.26 ml/cm^3 /min and 0.34 ml/cm^3 /min and 0.36 ml/cm^3 /min

Question: What about the “K1 (2TCM-c)” value [1] of the same molecule?
Answer: 0.58 ml/cm^3 /min and 0.24 ml/cm^3 /min and 0.34 ml/cm^3 /min and 0.36 ml/cm^3 /min

Question: And the “K1/k2 (2TCM)” value [1]?
Answer: 6.41 ml/cm^3 and 10.80 ml/cm^3 and 8.77 ml/cm^3

Question: And the “K1/k2 (2TCM-c)” value [1]?
Answer: 4.64 ml/cm^3 and 9.07 ml/cm^3 and 10.70 ml/cm^3 and 7.25 ml/cm^3

Question: And the “VT (1TCM)” value [1]?
Answer: 12.10 ml/cm^3 and 9.16 ml/cm^3 and 11.41 ml/cm^3 and 8.78 ml/cm^3

Question: What about the “VT (2TCM)” value [1] of the same molecule?
Answer: 12.28 ml/cm^3

Question: And the “VT (2TCM-c)” value [1]?
Answer: 12.24 ml/cm^3 and 18.89 ml/cm^3 and 8.78 ml/cm^3

Question: What about the “VT (Logan)” value [1] of the same molecule?
Answer: 12.38 ml/cm3 and 11.31 ml/cm3 and 11.82 ml/cm3 and 8.96 ml/cm3

Question: And the “k3/k4 (2TCM-c)” value [1]?
Answer: 1.64 and 0.80

Question: What about the “VT (1TCM)” value (Cerebellum, Retest, mean) of the same molecule?
Answer: 10.4 mL/cm^3

Question: And the “VT (2TCM)” value (Cerebellum, Retest, mean)?
Answer: 12.3 mL/cm^3

Question: What about the “VT (2TCM-c)” value (Cerebellum, Retest, mean) of the same molecule?
Answer: 13.3 mL/cm^3

Question: And the “VT (Logan (t* = 60))” value (Cerebellum, Retest, mean)?
Answer: 11.1 mL/cm^3

Question: What about the “k3/k4 (BPND) (2TCM-c)” value (Cerebellum, Retest, mean) of the same molecule?
Answer: 1.22

Question: What about the “K1 (2TCM)” value [2] of the same molecule?
Answer: 0.22 ml/cm^3 /min and 0.35 ml/cm^3 /min and 0.39 ml/cm^3 /min and 0.17 ml/cm^3 /min

Question: What about the “K1 (2TCM-c)” value [2] of the same molecule?
Answer: 0.23 ml/cm^3 /min and 0.33 ml/cm^3 /min and 0.39 ml/cm^3 /min and 0.17 ml/cm^3 /min

Question: And the “K1/k2 (2TCM)” value [2]?
Answer: 5.68 ml/cm^3 and 6.39 ml/cm^3 and 10.81 ml/cm^3 and 6.69 ml/cm^3

Question: What about the “K1/k2 (2TCM-c)” value [2] of the same molecule?
Answer: 4.35 ml/cm^3 and 8.22 ml/cm^3 and 10.99 ml/cm^3 and 7.86 ml/cm^3

Question: And the “VT (1TCM)” value [2]?
Answer: 8.70 ml/cm^3 and 9.24 ml/cm^3 and 12.07 ml/cm^3 and 9.02 ml/cm^3

Question: And the “VT (2TCM)” value [2]?
Answer: 10.64 ml/cm^3 and 10.48 ml/cm^3

Question: And the “VT (2TCM-c)” value [2]?
Answer: 9.72 ml/cm^3

Question: What about the “VT (Logan)” value [2] of the same molecule?
Answer: 10.54 ml/cm3 and 10.32 ml/cm3 and 13.27 ml/cm3 and 10.85 ml/cm3

Question: And the “k3/k4 (2TCM)” value [2]?
Answer: 0.87

Question: And the “k3/k4 (2TCM-c)” value [2]?
Answer: 1.24

Question: What about the “VT (1TCM)” value (Cerebellum, Test, mean) of the same molecule?
Answer: 9.8 mL/cm^3

Question: What about the “VT (2TCM)” value (Cerebellum, Test, mean) of the same molecule?
Answer: 10.6 mL/cm^3

Question: And the “VT (2TCM-c)” value (Cerebellum, Test, mean)?
Answer: 9.70 mL/cm^3

Question: And the “VT (Logan (t* = 60))” value (Cerebellum, Test, mean)?
Answer: 11.2 mL/cm^3

Question: And the “k3/k4 (BPND) (2TCM-c)” value (Cerebellum, Test, mean)?
Answer: 1.24

Question: What about the “K1 (2TCM)” value [3] of the same molecule?
Answer: 0.45 ml/cm^3 /min and 0.42 ml/cm^3 /min and 0.31 ml/cm^3 /min and 0.37 ml/cm^3 /min

Question: And the “K1 (2TCM-c)” value [3]?
Answer: 0.48 ml/cm^3 /min and 0.45 ml/cm^3 /min and 0.31 ml/cm^3 /min and 0.37 ml/cm^3 /min

Question: What about the “K1/k2 (2TCM)” value [3] of the same molecule?
Answer: 12.79 ml/cm^3 and 10.20 ml/cm^3

Question: And the “K1/k2 (2TCM-c)” value [3]?
Answer: 4.64 ml/cm^3 and 9.07 ml/cm^3 and 10.70 ml/cm^3 and 7.25 ml/cm^3

Question: What about the “VT (1TCM)” value [3] of the same molecule?
Answer: 14.34 ml/cm^3 and 16.78 ml/cm^3 and 11.35 ml/cm^3 and 12.88 ml/cm^3

Question: What about the “VT (2TCM)” value [3] of the same molecule?
Answer: 14.38 ml/cm^3 and 12.14 ml/cm^3 and 12.88 ml/cm^3

Question: And the “VT (2TCM-c)” value [3]?
Answer: 14.39 ml/cm^3 and 18.59 ml/cm^3 and 12.71 ml/cm^3 and 12.90 ml/cm^3

Question: And the “VT (Logan)” value [3]?
Answer: 14.05 ml/cm3 and 20.21 ml/cm3 and 11.72 ml/cm3 and 13.18 ml/cm3

Question: And the “k3/k4 (2TCM-c)” value [3]?
Answer: 2.10 and 1.07 and 0.78

Question: What about the “K1 (2TCM)” value [4] of the same molecule?
Answer: 0.24 ml/cm^3 /min and 0.53 ml/cm^3 /min and 0.38 ml/cm^3 /min and 0.22 ml/cm^3 /min

Question: And the “K1 (2TCM-c)” value [4]?
Answer: 0.25 ml/cm^3 /min and 0.55 ml/cm^3 /min and 0.38 ml/cm^3 /min and 0.22 ml/cm^3 /min

Question: And the “K1/k2 (2TCM)” value [4]?
Answer: 8.05 ml/cm^3 and 13.17 ml/cm^3 and 10.76 ml/cm^3 and 11.87 ml/cm^3

Question: And the “K1/k2 (2TCM-c)” value [4]?
Answer: 4.35 ml/cm^3 and 8.22 ml/cm^3 and 10.99 ml/cm^3 and 7.86 ml/cm^3

Question: And the “VT (1TCM)” value [4]?
Answer: 10.97 ml/cm^3 and 18.41 ml/cm^3 and 12.04 ml/cm^3 and 13.68 ml/cm^3

Question: What about the “VT (2TCM)” value [4] of the same molecule?
Answer: 12.58 ml/cm^3 and 19.94 ml/cm^3

Question: And the “VT (2TCM-c)” value [4]?
Answer: 11.41 ml/cm^3 and 18.77 ml/cm^3 and 14.10 ml/cm^3

Question: What about the “VT (Logan)” value [4] of the same molecule?
Answer: 12.20 ml/cm3 and 19.36 ml/cm3 and 13.14 ml/cm3 and 15.28 ml/cm3

Question: And the “k3/k4 (2TCM)” value [4]?
Answer: 0.56

Question: What about the “k3/k4 (2TCM-c)” value [4] of the same molecule?
Answer: 1.63 and 1.51 and 0.61

Question: And the “ICC of 2TCM-c VT” value (Frontal cortex)?
Answer: 0.84

Question: What about the “ICC of Logan (t* = 60) VT” value (Frontal cortex) of the same molecule?
Answer: 0.89

Question: What about the “aTRV of 2TCM-c VT” value (Frontal cortex) of the same molecule?
Answer: 11%

Question: And the “aTRV of Logan (t* = 60) VT” value (Frontal cortex)?
Answer: 11%

Question: What about the “VT (1TCM)” value (Frontal cortex, Retest, mean) of the same molecule?
Answer: 13.8 mL/cm^3
